From US20250333377A1, “SOLID FORM OF NAPHTHYLAMINE MITOPHAGY INDUCER, AND PREPARATION METHOD THEREFOR, PHARMACEUTICAL COMPOSITION THEREOF AND USE THEREOF” (HANGZHOU PHECDAMED CO., LTD., priority 2023, published 2025)

Experiments:
[1] = tested on: renal ischemia-reperfusion (I/R) model of SD rats; assay: Acute kidney injury model caused by unilateral renal ischemia and reperfusion in rats; format: in vivo
Protocol: The pharmacodynamic effects of the D crystal form of TJ01-013 are studied in a renal ischemia-reperfusion (I/R) model of SD rats. Each group has twelve male rats of 280-300 g. They are administered by gavage once a day for 3 consecutive days. Three dose groups are divided into 3 mg/kg, 10 mg/kg and 30 mg/kg. The sham group and model control group were administered by equal volumes of 0.5% CMC-Na, and left renal artery ligation is performed 1 h after administration on the fourth day, and right nephrectomy is performed after 45 min of ischemia and before reperfusion, and then administered every day until 3 d after administration. The endpoint of the experiment is 3 d after administration.

[2] = tested on: SD rat puromycin aminonucleoside (PAN) model; assay: PAN-induced renal injury model in rats; format: in vivo, SD rats
Protocol: The effect of D crystal form of TJ01-013 on renal function is studied in the SD rat puromycin aminonucleoside (PAN) model. Each group has twelve male rats of 160-180 g. On the first day of the experiment, except for the normal control group, rats in the other groups are given a single intraperitoneal injection of 100 mg/kg PAN (aminonucleoside puromycin) to induce the production of proteinuria. After modeling, the rats are randomly divided into the model control group, the three dose groups of 3 mg/kg, 10 mg/kg, and 30 mg/kg of the D crystal form of TJ01-013, and the normal control group. At the same time as intraperitoneal injection of PAN for modeling, the drug is administered by gavage once a day, with a volume of 10 mL/kg, for four consecutive weeks.

[3] = tested on: HEK293T cells; assay: Selective induction of autophagy in damaged mitochondria, Keima HEK293 cell model; format: cell-based; conditions: 0 μM, 2.5 μM, 5 μM, 10 μM; mitochondria damaged with CCCP; FIG. 42; P=0.0425
Protocol: In HEK293T cells in vitro, fusing Keima fluorescent protein derived from the coral and the mitochondrial localization sequence of cytochrome C oxidase subunit IV asmtKeima protein, staining the nuclei with Hoechst33342 nuclear dye, and using the ThermoCellInsight™ CX7 LZR High Content Screening (HCS) platform at EX/EM=594 nm/620 nm conditions to assess mitophagy levels. The autophagy level of damaged mitochondria is tested by disrupting the mitochondrial membrane potential using […] Carbonyl cyanide 3-chlorophenylhydrazone (CCCP), causing mitochondrial damage.

[4] = Hygroscopicity (vapor sorption analyser, DVS); format: physicochemical
Protocol: Single crystalline sample of compound TJ01-013 is tested using a Waters vaporsorption analyser. Taking a dry weighing tray, and laying a single sample of crystal form flat in the weighing tray, and the volume of the loaded samples is about ⅓ to ⅔ of that of the weighing tray. Instrument parameters are set as follows: temperature: 25° C.; equilibrium: dm/dt=0.01%/min (minimum time: 10 minutes, and maximum time: 180 minutes); drying: drying 120 minutes under 0% RH; RH (%) testing gradient: 10%; RH (%) test gradient range: 0%-90%-0%.

[5] = Crystal form conversion (heat treatment, suspension competition test, DSC analysis); format: physicochemical
From the text: The mutual conversion relationship among the A, B, C, D crystal forms of the sodium salt is further studied in this embodiment by heat treatment under nitrogen protection and suspension competition test.
However, the methods of heating, suspension pulping as well as grinding can not study the thermodynamic conversion relationship between crystal form A and crystal form D. In order to further study the thermodynamic conversion relationship of crystal form A and crystal form D, analyzed from the DSC pattern, the DSC of crystal form A is shown in FIG. 2, and the DSC of crystal form D is shown in FIG. 11, the melting point of crystal form A is higher than that of crystal form D, whereas the enthalpy of melting of crystal form A is much lower than that of crystal form D. It may be judged from the thermodynamic stability relationship table that if TA>TD, ΔHf, A>ΔHf, D, crystal form A and D is a univariate relationship, crystal form A is stable, if TA>TD, ΔHf, A<ΔHf, D, crystal forms A and D are reciprocal relationships, if the temperature is higher than the transcrystallization temperature, crystal form A is stable, and if the temperature is lower than the transcrystallization temperature, crystal form D is stable.

[6] = 3 mg/kg, 10 mg/kg, and 30 mg/kg, P<0.05-0.001
[7] = 10 mg/kg and 30 mg/kg, versus model control, P<0.001
[8] = 3, 10, and 30 mg/kg gavage, 7 and 12 d after administration, versus model control

SMILES: O=C(O)C[S+]([O-])c1cc(NS(=O)(=O)c2ccc(Br)cc2)c2ccccc2c1O (centres unmarked) [Embodiment 4]
- Creatinine clearance rate ([1]; 3 mg/kg, 10 mg/kg and 30 mg/kg, versus model control): different degrees of improvement
- Expression level of inflammatory factor IL-1p in renal tissues [1, 6]: significantly decreased
- Expression level of inflammatory factor IL-6 in renal tissues [1, 6]: significantly decreased
- Urea nitrogen level ([1]; 10 mg/kg and 30 mg/kg, 72 h after ischemia-reperfusion): significant trend of decrease
- Apoptotic cell rate in renal tissue [1, 7]: significantly decreased
- Expression level of apoptotic factor caspase 9 in renal tissues [1, 7]: significantly decreased
- Creatinine values ([1]; 10 mg/kg, 24 h, 48 h and 72 h after ischemia-reperfusion, versus model control, P<0.05-0.01): significantly decreased
- Degree of renal lesions (tubular dilatation, necrosis, glomerular atrophy, inflammatory cell infiltration etc.) ([1]; 10 mg/kg, versus model control): significantly reduced
- Creatinine clearance rate ([1]; 10 mg/kg, versus model control, P<0.05): statistically significant
- Creatinine values ([1]; 30 mg/kg, 24 h and 72 h after reperfusion, P<0.05): significantly decreased
- Degree of renal lesions (tubular dilatation, necrosis, glomerular atrophy, inflammatory cell infiltration etc.) ([1]; 30 mg/kg, versus model control): tendency to reduce the above lesions
- Effect on body weight ([1]; 3, 10, and 30 mg/kg gavage, 72 h after reperfusion, versus model control): no significant effect
- Amount of the 24 h urine protein [2, 8]: different degrees of reduction
- Urine protein concentration [2, 8]: different degrees of reduction
- Amount of the 24 h urine protein ([2]; 3, 10, and 30 mg/kg, 12 d after administration): certain trend of reduction
- Blood albumin ([2]; 3, 10 and 30 mg/kg, 7 d and 12 d after administration, versus model control): different degrees of increase
- Therapeutic effect on PAN-induced renal injury ([2]; gavage 3, 10, 30 mg/kg): significant therapeutic effect
- Degree of renal lesions, pathologic microscopy ([2]; low, medium and high dose groups): reduce the degree of lesions
- Induction of autophagy in damaged mitochondria (mitophagy level, mtKeima) [3]: selectively induce autophagy in the damaged mitochondria
- Percentage weight gain by moisture absorption ([4]; 90% RH, 25° C.): 2.13%
- Hygroscopicity (in words) ([4]; according to Table 7, 90% RH): slightly hygroscopic
- Crystal form conversion / relative stability in suspension competition test ([5]; equal amounts mixed, RT/50, magnetic stirring ~1000 rpm, about 20 hours, listed as crystal form D): more stable than crystal form B, C
- Thermodynamic stability of crystal form A versus crystal form D ([5]; judged from DSC data (Tables 9-10)): more stable at lower temperatures
